{"source": "patent US20240101568A1", "about": "“NOVEL BENZAZEPINE SPIRO DERIVATIVE” (SHANGHAI JEMINCARE PHARMACEUTICAL CO., LTD, priority 2020, published 2024)", "key": {"[1]": {"target": "T1, human vasopressin receptor V2R (Homo sapiens, UniProt P30518)", "T1 construct": "host or cells: HeLa (lentivirus infection, puromycin selection)", "T1 sequence (P30518 whole entry)": "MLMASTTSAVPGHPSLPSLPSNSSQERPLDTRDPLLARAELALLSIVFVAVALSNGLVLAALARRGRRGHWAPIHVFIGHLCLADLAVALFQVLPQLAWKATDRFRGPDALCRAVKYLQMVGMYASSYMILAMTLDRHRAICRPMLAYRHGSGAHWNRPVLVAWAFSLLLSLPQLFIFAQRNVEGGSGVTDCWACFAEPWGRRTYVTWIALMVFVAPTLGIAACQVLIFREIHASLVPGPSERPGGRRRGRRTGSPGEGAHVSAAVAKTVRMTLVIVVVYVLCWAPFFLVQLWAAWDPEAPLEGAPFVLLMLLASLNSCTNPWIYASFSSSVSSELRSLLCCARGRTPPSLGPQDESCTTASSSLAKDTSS", "assay": "IC50 assay for inhibition of vasopressin-induced V2R activation (cAMP increase, HTRF) in HeLa-V2R cells", "format": "cell-based", "excerpt": "Experimental Example 1: IC50 Assay for Inhibition of Vasopressin-Induced Vasopressin Receptor V2R Activation by Compounds\nHela cell line stably expressing the human vasopressin receptor V2R (HeLa-V2R): it was constructed by Shanghai Jikai Gene Chemical Technology Co. Ltd. using lentivirus infection method and stably expressed human V2R as verified by qPCR.\nDMEM cell culture medium: brand: Gibco, code: 11995065; fetal bovine serum: brand: Jitai, article No: FND500; 0.25% Trypsin: brand: Cibco, code: 25200072; Puromycin Dihydrochloride: brand: Gibco, code: A1113803; cAMP-GS HIRANGE KIT: brand: Cisbio, code: 62AM6PEC; IBMX: brand: Sigma, code: i5879; vasopressin AVP: Ji'er Biochemical (Shanghai) Co. Ltd.\nHela-V2R cells were cultured in a DMEM medium supplemented with 10% fetal bovine serum at 37° C. with 5% CO2 and continuously selected for V2R-expressing cells by adding 2 μg/mL puromycin. On the day of the experiment, cells were trypsinized, washed twice with stimulation buffer from the cAMP-GS HIRANGE kit, resuspended, and counted to 1.6×10^6 cells/ml, and IBMX was added to a final concentration of 0.5 mM. 5 μL of cell suspension/well was transferred to a 384-well plate and 2.5 μL of test compound or DMSO (minimum Min, maximum Max control) was added at various concentrations (10 μM in a 3-fold dilution, 10 concentration gradients) to the corresponding wells. After 30 minutes of incubation at room temperature, 2.5 μL vasopressin AVP solution was added to a final concentration of 2.25 nM to the test compound wells and 2.5 μL stimulation buffer to the minimum wells and incubated for 60 minutes at 25 C. Simultaneously cAMP standard sample (3-fold dilution from 5.6 μM, 10 concentration points) was prepared, and 10 μL of cAMP standard sample was transferred to corresponding well of a 384-well plate. The cAMP-d2 fluorescence and anti-cAMP antibody probes provided in the kit were diluted 20-fold with lysis buffer in the cAMP-GS HIRANGE kit, 5 μL of each was taken and added into each well of the 384-well plate in turn, mixed well with simple centrifugation performed, and incubated at 25° C. for 2 hours and then detect. Sample detection: fluorescence intensity was measured at 615 nm and 665 nm using the HTRF method in the Envision plate reader. Two duplicate wells were made for each sample to be tested, and 32 duplicate wells were made for Min and Max respectively.\nThe fluorescence intensity ratio FI665/615 at the wavelengths of 665 nm and 615 nm was calculated for each well sample. The standard curve was obtained by fitting the “log(inhibitor) vs response−variable slope (four parameters)” model in Prism 8.0 software with the logarithm of standard concentration as X and FI665/615X1000 as Y value. With the test well F1665/615X1000 as a Y value, the cAMP concentration corresponding to each sample was calculated according to the above standard curve in Prism 8.0 software.\nThe % Inhibition (inhibition percentage) was calculated as follows:\n% inhibition=(Cmax−Ccmpd)/(Cmax−Cmm)×100\nWhere Cmax is the average calculated cAMP concentration in all maximum wells; Cmm is the average calculated cAMP concentration in all […]; Ccmpd is the calculated cAMP concentration of the test compound.\nIC50s were calculated by non-linear regression using the “log(inhibitor) vs response−variable slope (four parameters)” model in Prism 8.0 software with % Inhibition (inhibition percentage) as Y value and log value of compound concentration as X, where Y=Bottom+(Top−Bottom)/(1+10^((Log IC50−X)*Hill Slope))."}, "in vivo": {"assay": "in vivo", "parameters": "species or system mice", "protocol": "Experimental Example 2: In Vivo Pharmacokinetic Experiments with Compounds of the Disclosure\nThis study evaluated in vivo pharmacokinetics in mice by intravenous and oral administration.\nExperimental methods and conditions: male CD1 mice, aged 6-8 weeks, had free access to drinking water and were given a single intravenous injection of test compound 1 mg/Kg (vehicle 5% DMSO/10% Solutol/85% Saline), 5 min, 15 min, 30 min, 1 hr, 2 hr, 4 hr, 8 hr, 24 hr or oral gavage administration of 10 mg/kg (vehicle 5% DMSO/10% Solutol/85% Saline) after administration. Orbital blood was collected at 15 min, 30 min, 1 hr, 2 hr, 4 hr, 6 hr, 8 hr, and 24 hr after administration. No less than 50 μL of each sample was collected. Heparin sodium was used for anticoagulation. After collection, the sample was placed on ice, and the plasma was separated and tested within 1 hour. Plasma concentrations were determined by liquid-phase tandem mass spectrometry (LC/MS/MS). Pharmacokinetic parameters were calculated using Phoenix WinNonlin software. The results are shown in Tables 2 and 3 with Tofapriptan as control 1."}, "LLC-PK1 cells": {"test_system": "LLC-PK1 cells", "assay": "Compound proliferation inhibition assay on LLC-PK1 cells (vasopressin-induced proliferation)", "format": "cell-based, Porcine", "conditions": "AVP 10 nM, verapamil 5 μM, 48 hr, FIG. 1", "excerpt": "Experimental Example 3: Compound Proliferation Inhibition Assay on LLC-PK1 Cells\n(1) Cell • Porcine kidney epithelial cells LLC-PK1: purchased from ATCC, Cat #CL-101\n(2) Reagents: • Medium 199, Gibco (Cat #11150059) • Fetal Bovine Serum (FBS), Australia, Jitai (Cat #FND500) • Trypsin-EDTA (0.25%), phenol red, Gibco (Cat #25200072) • PBS, pH 7.4, Gibco (Cat #10010031) • DMSO (Dimethyl Sulfoxide), Sigma (Cat #D8418) • Poly-D-lysine, Gibco (Cat #A3890401) • Vasopressin AVP: Ji'er Biochemical Co. Ltd. Customization • Verapamil hydrochloride, MCE (Cat #HY-A0064) • AlamarBlue™ HS Cell Viability Reagent, Invitrogen (Cat #A50100) […]\nLLC-PK1 cells were cultured in M199 medium supplemented with 10% fetal bovine serum at 37° C. with 5% CO2. […] LLC-PK1 cells were trypsinized, resuspended in serum-free M199 after centrifugation, counted, diluted to a cell suspension of 1×10^5/mL in serum-free M199 culture medium, and FBS was added to a final concentration of 1%. […] On the fifth day, the culture solution was carefully suctioned away, the cells were washed once with 200 μL PBS, 90 μL of M199 serum-free culture solution was carefully added, then 10 μL Alamarblue reagent was added, and the mixture was centrifuged at 300 rpm for 1 min, incubated at 37° C. for 2 h, and then detected. […]\nData quality control: S/B, i.e., Max well average/Min well average, is calculated and […] is considered QC pass."}, "[2]": {"conditions": "Human V2R Hela-Stable cell line OE2, AVP 2.25 nM, read-out: IC50 (nM), inhibition of the cAMP increase"}}, "note": "Like-named read-outs stand apart in the source and are kept apart here.", "data": [{"smiles": "Cc1ccccc1C(=O)Nc1ccc(C(=O)N2CCC(F)(F)C3(CN3)c3cc(Cl)ccc32)c(C)c1", "note": "(centres unmarked) [Compound 2]", "values": [{"measurement": "IC50", "setting": "[1]; [2]", "result": 9.35, "unit": "nM"}]}, {"smiles": "Cc1cc(NC(=O)c2ccccc2Cl)ccc1C(=O)N1CCCC2(CN2)c2cc(Cl)ccc21", "note": "(centres unmarked) [Compound 8]", "values": [{"measurement": "IC50", "setting": "[1]; [2]", "result": 5.01, "unit": "nM"}]}, {"smiles": "Cc1ccccc1C(=O)Nc1ccc(C(=O)N2CCCC3(CN3)c3cc(Cl)ccc32)cn1", "note": "(centres unmarked) [Compound 4]", "values": [{"measurement": "IC50", "setting": "[1]; [2]", "result": 3.14, "unit": "nM"}]}, {"smiles": "Cc1ccccc1C(=O)Nc1ccc(C(=O)N2CCCC3(CC3)c3cc(Cl)ccc32)c(C)c1", "note": "[Compound 16]", "values": [{"measurement": "IC50", "setting": "[1]; [2]", "result": 11.2, "unit": "nM"}]}, {"smiles": "Cc1ccccc1C(=O)Nc1ccc(C(=O)N2CCCC3(CCC3)c3cc(Cl)ccc32)c(C)c1", "note": "[Compound 17]", "values": [{"measurement": "IC50", "setting": "[1]; [2]", "result": 10.4, "unit": "nM"}]}, {"smiles": "Cc1ccccc1C(=O)Nc1ccc(C(=O)N2CCC(F)(F)C3(CN3)c3cc(Cl)ccc32)cn1", "note": "(centres unmarked) [Compound 20]", "values": [{"measurement": "IC50", "setting": "[1]; [2]", "result": 5.54, "unit": "nM"}]}, {"smiles": "O=C(Nc1ccc(C(=O)N2CCCC3(CN3)c3cc(Cl)ccc32)cn1)c1ccccc1C(F)(F)F", "note": "(centres unmarked) [Compound 5]", "values": [{"measurement": "IC50", "setting": "[1]; [2]", "result": 4.67, "unit": "nM"}]}, {"smiles": "Cc1ccccc1C(=O)Nc1ccc(C(=O)N2CCCC3(CN3)c3cc(Cl)ccc32)c(C)c1", "note": "(centres unmarked) [Compound 9]", "values": [{"measurement": "IC50", "setting": "[1]; [2]", "result": 4.88, "unit": "nM"}]}, {"smiles": "O=C(Nc1ccc(C(=O)N2CCC(F)(F)C3(CN3)c3cc(Cl)ccc32)cn1)c1ccccc1Cl", "note": "(centres unmarked) [Compound 21]", "values": [{"measurement": "IC50", "setting": "[1]; [2]", "result": 4.51, "unit": "nM"}]}, {"smiles": "Cc1ccccc1C(=O)Nc1ccc(C(=O)N2CCCC(O)c3cc(Cl)ccc32)c(C)c1", "note": "(centres unmarked) [Control 1, Tofapriptan, reference compound]", "values": [{"measurement": "AUC0-inf", "setting": "in vivo; mouse, iv, 1 mg/kg", "result": 367, "unit": "ng·h/mL"}, {"measurement": "Cl", "setting": "in vivo; mouse, iv, 1 mg/kg", "result": 45.5, "unit": "mL/min/kg"}, {"measurement": "T1/2", "setting": "in vivo; mouse, iv, 1 mg/kg", "result": 31.8, "unit": "min"}, {"measurement": "AUC0-inf", "setting": "in vivo; mouse, po, 10 mg/kg", "result": 1613, "unit": "ng·h/mL"}, {"measurement": "Cmax", "setting": "in vivo; mouse, po, 10 mg/kg", "result": 1307, "unit": "ng/mL"}, {"measurement": "F (%)", "setting": "in vivo; mouse, po, 10 mg/kg", "result": 44, "unit": "%"}, {"measurement": "T1/2", "setting": "in vivo; mouse, po, 10 mg/kg", "result": 94.8, "unit": "min"}]}, {"smiles": "O=C(Nc1ccc(C(=O)N2CCC(F)(F)C3(CN3)c3cc(Cl)ccc32)cn1)c1ccccc1C(F)(F)F", "note": "(centres unmarked) [Compound 1]", "values": [{"measurement": "IC50", "setting": "[1]", "result": 10.9, "unit": "nM"}, {"measurement": "inhibitory effect on the proliferation of LLC-PK1 cells", "setting": "LLC-PK1 cells; compared with control 1", "result": "stronger than that of control 1"}, {"measurement": "pro-proliferation effect on LLC-PK1 cells", "setting": "LLC-PK1 cells", "result": "no pro-proliferation effect"}, {"measurement": "AUC0-inf", "setting": "in vivo; male, CD1, mouse, iv, 1 mg/kg", "result": 719, "unit": "ng·h/mL"}, {"measurement": "clearance", "setting": "in vivo; male, CD1, mouse, iv, 1 mg/kg", "result": 23.2, "unit": "mL/min/kg"}, {"measurement": "half-life", "setting": "in vivo; male, CD1, mouse, iv, 1 mg/kg", "result": 55.2, "unit": "min"}, {"measurement": "AUC0-inf", "setting": "in vivo; male, CD1, mouse, po, 10 mg/kg", "result": 4060, "unit": "ng·h/mL"}, {"measurement": "Cmax", "setting": "in vivo; male, CD1, mouse, po, 10 mg/kg", "result": 1260, "unit": "ng/mL"}, {"measurement": "bioavailability", "setting": "in vivo; male, CD1, mouse, po, 10 mg/kg", "result": 56, "unit": "%"}, {"measurement": "half-life", "setting": "in vivo; male, CD1, mouse, po, 10 mg/kg", "result": 36, "unit": "min"}]}]}
